Experiment: Theophylline release experiment in pH 7 phosphate buffer
Format: physicochemical
Conditions: FIG. 24
Experimental: First, the porous particles containing theophylline of Application Examples of 4-1 to 4-4 were dispersed in a phosphate buffer solution of pH 7 at 200 mg/100 mL.
Next, the solution was collected over time, filtered by a filter, and thereafter analyzed by high-performance liquid chromatography, and the concentration of theophylline in the solution was measured.

For `Cn1c(=O)c2[nH]cnc2n(C)c1=O` [theophylline alone, theophylline], the “Theophylline release / dissolution behaviour” value was “whole amount was dissolved instantaneously”.

— patent US20170319483A1, “METHOD FOR PRODUCING POROUS PARTICLE” (National Institute for Materials Science, priority 2014, published 2017)
